Assay results reported in patent publication US20240336573A1, “COMPOUND FOR THE TREATMENT AND PROPHYLAXIS OF INFECTIOUS DISEASES” (Eberhard Karls Universität Tübingen Medizinische Fakultät, priority 2021, published 2024).

How the values were obtained:
[1] = tested on: E. coli BW25113, E. coli JW2496-3, E. coli ATCC 25922; assay: Minimal inhibitory concentration assay (bactericidal/bacteriostatic assessment); type: cell-based; conditions: dilution series 100-1.7 μM
Text: The intended effect of a SurA inhibitor should be the induction of a disturbance of the outer membrane composition resulting in an increased susceptibility to antibiotic treatment. Of note, Vancomycin is typically not used to treat infections with Gram-negative bacteria, because it is excluded by the OM and not efficient at concentrations that could be achieved in patients. However, at appropriate dosing in vitro it can be used to detect outer membrane defects. For determining a potential sensitizing effect of Vancomycin treatment, the inventors first tested whether the compounds at hand were bactericidal per se. Therefore, the inventors performed a minimal inhibitory concentration (MIC) assay. To this end, 5 ml overnight cultures of E. coli BW25113 (Keio-Collection reference strain), E. coli JW2496-3 (Keio-Collection single gene knockout for bamB, which suffers from decreased outer membrane integrity) and E. coli ATCC 25922 (a reference strain recommended for antibiotic susceptibility testing) were grown in Mueller Hinton Broth, Cation adjusted (MHB-II). The next day, the OD was adjusted to obtain 1*10^8 CFU/ml using fresh MHB-II. Next, this bacterial solution was diluted 1:100 into 20 ml fresh MHB-II. 50 μl of this bacteria solution were then transferred into each well of a 96-well plate prefilled with 50 μl MHB-II supplemented with the desired compounds. The test plates for the bactericidal assessment contained dilution series of the compounds from 100-1.7 μM. Plates were sealed with a gas permeable membrane and incubated o/n at 37° C. in a humid chamber without shaking. After o/n incubation, bacterial growth was quantified by measuring the optical density at 600 nm wavelength in a multiplate reader. Compounds showing no growth inhibition at 100 μM were considered non-bactericidal. Of note, the bactericidal effect of Vancomycin was assessed similarly for each test strain using Vancomycin concentrations ranging from […]. This was done to identify a Vancomycin concentration at which the strains just managed to survive.

[2] = Solubility estimate based on turbidity (OD600 nm); type: physicochemical
Text: The evaluation of these shelf derivatives included an estimate of their solubility based on the turbidity (OD600 nm) as well as their activity in the primary assay (2.1), their KD (2.2), their MIC reduction of Vancomycin (2.5) and their cytotoxicity (2.6) (Table 4).

E. coli = assay: Vancomycin MIC in presence of compound (strain not stated); type: cell-based; conditions: in presence of 100 μM compound
Protocol: To test for the sensitizer properties of the compounds, the inventors then performed a sensitizer MIC assay. To this end, E. coli BW25113, E. coli JW2496-3, and E. coli ATCC 25922 inocula were prepared as described above. Each well of a 96-well plate was prefilled with a fixed compound concentration of 100 μM and a dilution series of Vancomycin ranging from […]. A sensitizing effect was defined as reduction of the MIC value of Vancomycin of the respective test strain.

SurA = SurA (Escherichia coli, UniProt P0ABZ6); assay: Luciferase-based SurA activity assay at the ELF (primary screen P1, dose response C2); type: biochemical, E. coli
SurA, sequence (P0ABZ6 21-428): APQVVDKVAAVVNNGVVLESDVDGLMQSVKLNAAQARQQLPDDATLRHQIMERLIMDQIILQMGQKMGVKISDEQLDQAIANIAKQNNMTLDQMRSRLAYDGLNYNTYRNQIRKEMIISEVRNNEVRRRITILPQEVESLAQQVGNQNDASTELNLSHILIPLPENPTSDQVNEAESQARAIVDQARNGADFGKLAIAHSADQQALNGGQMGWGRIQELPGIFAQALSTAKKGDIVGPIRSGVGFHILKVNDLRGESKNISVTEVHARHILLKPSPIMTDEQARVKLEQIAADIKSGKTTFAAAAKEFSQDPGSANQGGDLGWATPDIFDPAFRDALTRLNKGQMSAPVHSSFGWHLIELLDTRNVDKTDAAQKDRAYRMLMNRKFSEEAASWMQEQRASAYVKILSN
Text: The biological function of SurA is to bind and to keep outer membrane proteins that have reached the periplasm in an unfolded but folding-competent state. The inventors' assay is based on this interaction and uses firefly Luciferase (fLuc) as a non-native substrate. […] This is exploited in the assay (FIG. 3). The loss of tertiary structure of fLuc leads to the exposure of binding sites for SurA. It is known that SurA binds selectively to a special group of substrates. These substrates have in common the specific patterns of hydrophobic amino acids that are highly enriched in the beta strands of integral outer membrane proteins. These motifs are present in OMPs of all Gram-negative bacteria and in fLuc as well. Upon mild heat treatment of fLuc and its subsequent partial unfolding, fLuc is accepted as a substrate by SurA. Of note, these intermediates served as reporter substrates to determine the activity of a […] folding chaperone. […] This interaction remains stable upon temperature reduction. Next, the temperature of the assay is reduced to room temperature and luciferase activity is subsequently measured by addition of Luciferin and ATP. In conditions without SurA, fLuc will refold into its active conformation resulting in a luminescence signal.
Of note, the SurA activity assay was performed similar at the ELF but with optimizations in regard of the higher throughput including the change of the plate format to 1536-wells. The SurA activity assay performed at the ELF contained the following steps (adapted from the QHL report provided by the ELF). First, SurA was thawed at RT and heat activated in a water bath. Next, the vial was taken out of the water bath and cooled down to RT for 30 min @ bench. Afterwards, the SurA concentration was adjusted in assay buffer to 2 μM. Noteworthy, the SurA solution was kept on ice. […] Finally, 2 μL substrate mix (180 μM Luciferin with 12 mM ATP) were added simultaneously to all wells using the Fluorometric Imaging Plate Reader (FLIPR) and the luminescence signal was measured immediately afterwards on the FLIPR (Gain 70,000). […]

NC(=O)c1nc(Cc2ccc(OCC(=O)O)cc2)[nH]c1NC(=O)c1ccc(-c2ccccc2)cc1 [Compound 2a, 2-(4-((5-([1,1′-biphenyl]-4-carboxamido)-4-carbamoyl-1H-imidazol-2-yl)methyl)phenoxy)acetic acid]
Bacteriostatic MIC Assay Result [1]: non-bacteriostatic

CN(C)c1ccc(-c2nc3cc(NC(=O)Cn4cc5ccccc5n4)ccc3[nH]2)cc1 [QHL-24]
Solubility (in words) [2]: poor solubility | MIC (Vanco, mg/ml) (E. coli): 0.256 mg/mL | DRC (C2) pIC50 (SurA; 7 concentration steps 20 μM to 27.4 nM, n=2): 5.45 | Primary assay (P1) % Effect (SurA; ELF library screen, 1536-well): 151% | Primary assay (P1) Z-score (SurA; ELF library screen, 1536-well): 191.97
